Common to all, as to format: cell-based
The nature of assay [1]: Hoechst 33342 nuclear staining (48 h read-out). In a few lines:
(§1)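 Adherent cells pre-spread 24 h before dosing, suspension cells dosed at seeding; compounds at 0.001 μM-10 μM final, 48 h at culture conditions. Hoechst 33342 (2-5 μg/ml) added for 30 min, then fluorescence microscopy scoring of apoptotic nuclear fraction and apoptosis-specific morphology, reported as scores A-D.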

Assay [2] deals with tumor cells. Briefly: Hoechst 33342 nuclear staining (48 h read-out). In a few lines:
as §1

Assay [3] can be described thus: MTS proliferation assay (72 h read-out). Particulars: MRC5 cells. In a few lines:
(§2)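 Viability was read by MTS absorbance at 492 nm after 3 h with reagent. Before that, cells plated a day earlier at 1.5×10^3–10^4 per well had been incubated with test compound at final concentrations of 0.001–10 μM for 72 h; activity is given as category scores A–D.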
On the technique in general: Formazan colour is commonly taken as a measure of viable cells.

Assay [4] deals with tumor cells. Kind of assay: MTS proliferation assay (72 h read-out). In a few lines:
as §2

The nature of assay [5]: Mitochondrial membrane potential, JC-1 (read-out 48 h). Particulars: PBL, JC-1, 48 h. In a few lines: (§3)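 Tumor cells were treated with test compounds (adherent cells after 24 h of attachment, suspension cells immediately), medium holding up to 5% DMSO. After 48 h, JC-1 (2-5 μg/ml in added medium) was applied for 30 min. Fluorescence microscopy (FITC/TRITC filters) scored the fraction of cells with dissipated mitochondrial membrane potential as categories A-D.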

The test system of assay [6] is tumor cells. The description is as above. Particulars: JC-1, 48 h. In a few lines: as §3
Setting [7] is: Homo sapiens, MRC5 cells, read-out: Hoechst 33342 nuclear staining EC50, MRC5.
The mark [8] stands for this setting: PBL, read-out: Hoechst 33342 nuclear staining EC50, PBL.
The mark [9] stands for this setting: Homo sapiens, HeLa cells, read-out: Hoechst 33342 nuclear staining EC50, HeLa.
Where [10] appears, read: Homo sapiens, Jurkat cells, read-out: Hoechst 33342 nuclear staining EC50, Jurkat.
[11] abbreviates: Jily cells, read-out: Hoechst 33342 nuclear staining EC50, Jily.
Setting [12] is: Homo sapiens, HT-1080, HT1080 cells, read-out: MTS proliferation assay IC50, HT1080.
The mark [13] stands for this setting: Homo sapiens, HeLa cells, read-out: MTS proliferation assay IC50, HeLa.
The mark [14] stands for this setting: Homo sapiens, Jurkat cells, read-out: MTS proliferation assay IC50, Jurkat.
[15] abbreviates: Jily cells, read-out: MTS proliferation assay IC50, Jily.
Where [16] appears, read: Homo sapiens, HeLa cells, read-out: Mitochondrial membrane potential (read-out 48 h) HeLa.
The mark [17] stands for this setting: Homo sapiens, Jurkat cells, read-out: Mitochondrial membrane potential (read-out 48 h) Jurkat.
Where [18] appears, read: Homo sapiens, MCF7 cells, read-out: Mitochondrial membrane potential (read-out 48 h) MCF7.
[19] abbreviates: Jily cells, read-out: Mitochondrial membrane potential (read-out 48 h) Jily.
Where [20] appears, read: MRC5 cells, read-out: Hoechst 33342 nuclear staining EC50, MRC5.
The mark [21] stands for this setting: HeLa cells, read-out: Hoechst 33342 nuclear staining EC50, HeLa.
[22] abbreviates: Jurkat cells, read-out: Hoechst 33342 nuclear staining EC50, Jurkat.
[23] abbreviates: HT1080 cells, read-out: MTS proliferation assay IC50, HT1080.
The mark [24] stands for this setting: HeLa cells, read-out: MTS proliferation assay IC50, HeLa.
[25] abbreviates: Jurkat cells, read-out: MTS proliferation assay IC50, Jurkat.
The mark [26] stands for this setting: HeLa cells, read-out: Mitochondrial membrane potential (read-out 48 h) HeLa.
Setting [27] is: Jurkat cells, read-out: Mitochondrial membrane potential (read-out 48 h) Jurkat.
Where [28] appears, read: MCF7 cells, read-out: Mitochondrial membrane potential (read-out 48 h) MCF7.

Where two headings read alike, the source gives them in different places.

Consider `COc1ccc(OC)c(C(=O)c2oc3ccccc3c2O)c1` [Reference Example A, 2-(2,5-dimethoxybenzoyl)-3-hydroxybenzofuran, reference compound], for which the EC50 (in assay [1] (setting [7]); in assay [1] (setting [8]); with tumor cells [2] (setting [9]); with tumor cells [2] (setting [10]); with tumor cells [2] (setting [11]); in assay [5]) was above 1000 nM in each case. The EC50 with tumor cells [6] (setting [16]), in the assay on tumor cells [6] (setting [17]), in the assay on tumor cells [6] (setting [18]) and with tumor cells [6] (setting [19]) was above 1000 nM each time. The IC50 (in assay [3] (Homo sapiens); in the assay on tumor cells [4] (setting [12]); with tumor cells [4] (setting [13]); with tumor cells [4] (setting [14]); with tumor cells [4] (setting [15])) was above 1000 nM in each case.

For `Nc1c(C(=O)c2cc(F)ccc2N2CCCCC2)oc2ccc(Cl)cc12` [Example 100], the EC50 in assay [1] (setting [20]) is 100 to 1000 nM; in assay [1] (setting [8]) it was above 1000 nM; in the assay on tumor cells [2] (setting [21]) it was 100 to 1000 nM; with tumor cells [2] (setting [11]), 100 to 1000 nM; in the assay on tumor cells [2] (setting [22]), 10 to 100 nM; in assay [5], above 1000 nM. The EC50 with tumor cells [6] (setting [26]) lay within 100 to 1000 nM; in the assay with tumor cells [6] (setting [19]), 10 to 100 nM; in the assay with tumor cells [6] (setting [27]), 10 to 100 nM; in the assay with tumor cells [6] (setting [28]) it was 100 to 1000 nM. Further, the IC50 is 10 to 100 nM in assay [3]; 10 to 100 nM in the assay with tumor cells [4] (setting [23]); 100 to 1000 nM with tumor cells [4] (setting [24]); 10 to 100 nM in the assay with tumor cells [4] (setting [15]); 10 to 100 nM in the assay with tumor cells [4] (setting [25]).

On to `CCOc1ccc(C(=O)O)cc1C(=O)c1oc2ccc(Cl)cc2c1N` [Example 44], for which the EC50 (in assay [1] (setting [20]); in assay [1] (setting [8]); with tumor cells [2] (setting [21]); in the assay with tumor cells [2] (setting [11]); in the assay with tumor cells [2] (setting [22]); in assay [5]) was above 1000 nM throughout. For the same compound, the EC50 in the assay on tumor cells [6] (setting [26]), in the assay on tumor cells [6] (setting [19]), with tumor cells [6] (setting [27]) and with tumor cells [6] (setting [28]) was above 1000 nM throughout. For the same compound, the IC50 (in assay [3]; with tumor cells [4] (setting [23]); in the assay with tumor cells [4] (setting [24]); in the assay on tumor cells [4] (setting [15]); with tumor cells [4] (setting [25])) was above 1000 nM in each case.

Regarding `COc1ccc2oc(C(=O)c3ccccc3OCC(F)(F)F)c(N)c2c1` [Example 60], the EC50 is above 1000 nM in assay [1] (setting [20]); above 1000 nM in assay [1] (setting [8]); 100 to 1000 nM in the assay on tumor cells [2] (setting [21]); 10 to 100 nM with tumor cells [2] (setting [11]); 10 to 100 nM in the assay with tumor cells [2] (setting [22]); above 1000 nM in assay [5]. Further, the EC50 with tumor cells [6] (setting [26]) is 100 to 1000 nM; in the assay on tumor cells [6] (setting [19]), 10 to 100 nM; in the assay with tumor cells [6] (setting [27]), 10 to 100 nM; with tumor cells [6] (setting [28]), above 1000 nM. For the same compound, the IC50 in assay [3] fell in the range of 100 to 1000 nM; in the assay with tumor cells [4] (setting [23]) it was 10 to 100 nM; in the assay on tumor cells [4] (setting [24]), 100 to 1000 nM; in the assay on tumor cells [4] (setting [15]), 10 to 100 nM; with tumor cells [4] (setting [25]) it was 10 to 100 nM.

With `O=C(c1cc2cc(OCc3ccccc3)ccc2o1)c1cc(F)ccc1N1CCOCC1` [Example 106], the EC50 (in assay [1] (setting [20]); in assay [1] (setting [8]); in the assay on tumor cells [2] (setting [21]); in the assay with tumor cells [2] (setting [11]); in the assay with tumor cells [2] (setting [22]); in assay [5]) was above 1000 nM throughout. Moreover, the EC50 with tumor cells [6] (setting [26]), in the assay on tumor cells [6] (setting [19]), in the assay on tumor cells [6] (setting [27]) and in the assay with tumor cells [6] (setting [28]) was above 1000 nM throughout. Further, the IC50 (in assay [3]; with tumor cells [4] (setting [23]); in the assay on tumor cells [4] (setting [24]); in the assay on tumor cells [4] (setting [15]); in the assay on tumor cells [4] (setting [25])) was above 1000 nM throughout.

On to `CCOc1ccc(F)cc1C(=O)COc1ccc(Cl)cc1C#N` [Example 143, ω-(4-Chloro-2-cyanophenoxy)-2-ethoxy-5-fluoroacetophenone], for which the EC50 was below 10 nM in assay [1] (setting [7]); above 1000 nM in assay [1] (setting [8]); 10 to 100 nM in the assay on tumor cells [2] (setting [9]); below 10 nM with tumor cells [2] (setting [10]); below 10 nM with tumor cells [2] (setting [11]); above 1000 nM in assay [5]. Further, the figures for the EC50 with tumor cells [6] (setting [16]), with tumor cells [6] (setting [17]) and in the assay with tumor cells [6] (setting [18]) were 10 to 100 nM, below 10 nM and 10 to 100 nM, respectively. The IC50 (in assay [3] (Homo sapiens); with tumor cells [4] (setting [12]); with tumor cells [4] (setting [13]); with tumor cells [4] (setting [14]); with tumor cells [4] (setting [15])) was 10 to 100 nM in each case.

Values taken from patent US8486996B2, “Aroylfuranes and aroylthiophenes” (Basilea Pharmaceutica AG, priority 2006, dated 2013).
